Results reported in patent US11634434B2, “Bifunctional alpha-synuclein binding agents and uses thereof” (University of Saskatchewan, priority 2016, dated 2023).
Values joined by “and” are separate entries in the source; they are usually repeats but may differ in a detail not shown here. Equal entries are not always repeated. Where two headings read alike, the source gives them in different places.

Tests used:
alpha-synuclein [1] = target: T1, alpha-synuclein (Homo sapiens, UniProt P37840); assay: Nanopore analysis of alpha-synuclein (blockade current histograms); format: binding; details: for nanopore profile of additional bifunctional molecules: FIGS. 9A-9D; for nanopore profile (bumping peak / binding): 1 micromolar alpha-synuclein, 20 micromolar compound, FIG. 3; for binding to alpha-synuclein: method not stated for these compounds
Experimental: The bifunctional molecules were characterized by four different methods. […] If the compound causes a more compact conformation, then the alpha-synuclein can no longer translocate and it simply bumps into the pore giving rise to a very small change in the blockade current.^44-46
(§1) Nanopore analysis and isothermal titration calorimetry were performed as described previously.^21,54

alpha-synuclein [2] = target: T1, alpha-synuclein; assay: Isothermal titration calorimetry (ITC) binding to alpha-synuclein; details: for # Binding sites: Table 2; for Bind to N and C?: binds to both N and C portions of alpha-synuclein; on Bind to N and C?: key: Y indicates yes; N indicates no
Experimental: as §1

[3] = test system: yeast strain 2AS (2 copies of AS-GFP gene); format: cell-based
Experimental: (§2) Third, the drugs were assayed in a yeast model of Parkinson's Disease, which expresses an alpha-synuclein-Green Fluorescent Protein (AS-GFP) construct under the control of a galactose promoter.
Construction of the 1AS and 2AS strains has been described in detail previously.^55 Strains were grown in YPD supplemented with 30 μg/ml of all amino acids. The OD600 was adjusted to 0.05 in drop-out media (no uracil) at 30° C. Drugs were dissolved in methanol at 0.01 micromolar, 0.1 micromolar, 1 micromolar or 10 micromolar followed by addition of 100 micromolar or 5 mM galactose to a final volume of 10 mL.

WT yeast = assay: Yeast growth curves (OD600), toxicity of drugs on WT yeast; format: cell-based; parameters: effect on growth of WT yeast: dose or concentration left out as unconfirmed; details: for effect on growth of WT yeast: no alpha-synuclein
[4] = test system: alpha-synuclein-GFP aggregation in yeast strain 2AS; format: cell-based; details: 1 micromolar compound, 5 mM galactose; for AS-GFP foci / fluorescence pattern: up to 12 hours
Experimental: as §2
For Analysis of AS-GFP distribution, the 2AS strain was grown overnight in drop-out media. After normalization of culture density, galactose was administered to a final concentration of 5 mM. […] For the yeast recovery assay, yeast cells were obtained after 6 hours induction with 5 mM galactose concentration, washed in galactose free media and the compounds were added to a final concentration of 1 micromolar in a 2 mL reaction mixture. The culture was incubated at 30° C. for 3, 6, and 9 hour intervals. Images were obtained at each interval using an Olympus Infinity (BX51) fluorescence microscope at 100× magnification.

[5] = test system: male Sprague-Dawley rats with increased alpha-synuclein expression; assay: Forced swim test in ASIA-treated rats; format: in vivo, rat; details: ASIA + compound 3 mg/kg
Experimental: male Sprague-Dawley rats are used (200 g-300 g). All animals are handled ethically following approved protocols. For the first round of studies, rats are divided into five treatment groups:
Rats are subjected to 7-day chronic injection of 3 mg/kg of each test compound, and a forced swim test is conducted after the seventh day to measure motor deficits. […] For a second round of studies, rats are divided into four treatment groups, and the same experiments were repeated:
The forced swim test is carried out by immersing the rat in water that is sufficiently deep to force the rat to swim. The forced swim test is scored based on the following criteria:
Vigor and success are measures of motor function. Immobility is thought to be a measure of depression.^59 Based on videos of the forced swim test, the amount of time that each rat was motionless was calculated as a form of scoring depression for each treatment. Statistical analysis was carried out using an ordinary one-way ANOVA and Tukey multiple comparisons test.

[6] = ITC in 1.0M KCl, bifunctional molecules (or monomers) per alpha-synuclein molecule, best fit
[7] = 1 micromolar compound + 5 mM galactose
[8] = 1 micromolar compound + 100 micromolar galactose

| Structure (SMILES) | nanopore profile of additional bifunctional molecules (alpha-synuclein [1]) | # Binding sites (alpha-synuclein [2]) | Ka (alpha-synuclein [2]; Table 2, ITC) | Bind to N and C? (alpha-synuclein [2]) | also measured |
| --- | --- | --- | --- | --- | --- |
| Cn1c(=O)c2c(ncn2CCCCN2CCCC2c2cccnc2)n(C)c1=O (racemic) [Compound C7-4-N] | bumping peaks, but have a shifted translocation peak visible as well | 1 | 3e+06 M⁻¹ | Y |  |
| CN1CCCC1c1cccnc1 (stereo not shown) [Nicotine, nicotine, reference compound] |  | 1 |  | Y | Kd (alpha-synuclein [2]; Ka): 1 µM |
| Cn1c(=O)c2c(ncn2CCCCCCN2CCCC2c2cccnc2)n(C)c1=O (racemic) [Compound C7-6-N] |  | 1 | 5e+06 M⁻¹ | Y | Ka (alpha-synuclein [2]; ITC in 1.0M KCl): 5.1e+06 M⁻¹; # of Binding sites (alpha-synuclein [2]; [6]): 1; lag before growth rescue / reaching the growth plateau [3, 7]: about 6 hours |
| N[C@@H]1CCc2ccccc21 [R-Aminoindan, reference compound] |  | 1 | 1e+06 M⁻¹ | Y | Ka (alpha-synuclein [2]; ITC in 1.0M KCl): 1e+06 M⁻¹; # of Binding sites (alpha-synuclein [2]; [6]): 1 |
| Cn1c(=O)c2c(ncn2CCCCCCCCN2CCCC2c2cccnc2)n(C)c1=O (racemic) [Compound C7-8-N] | bumping peaks, but have a shifted translocation peak visible as well | 1 | 4e+06 M⁻¹ | Y |  |
| CC(N)Cc1ccccc1 (stereo not shown) [amphetamine] |  |  |  |  | effect on growth of WT yeast (WT yeast): no evidence of toxicity; growth of 2AS yeast [3, 8]: significant reduction of growth; time at which complete filling of the cell with AS-GFP occurs [4]: 6 h; AS-GFP foci / fluorescence pattern [4]: larger foci appear at earlier times |
| C=C(C)[C@H]1Cc2c(ccc3c2O[C@@H]2COc4cc(OC)c(OC)cc4[C@@H]2C3=O)O1 [rotenone, reference compound] |  |  |  |  | growth of 2AS yeast [3, 8]: significant reduction of growth |
| Cn1c(=O)c2c(ncn2CCN2CCCC2c2cccnc2)n(C)c1=O (racemic) [Compound C7-2-N] | bumping peaks, but have a shifted translocation peak visible as well | 1 | 50000 M⁻¹ | Y |  |
| CN1CCC[C@H]1c1cccnc1 (racemic) [(R,S)-nicotine, reference compound] |  |  |  |  | growth of 2AS yeast [3, 8]: rate of growth which is similar to that shown by the WT strain; formation of foci delayed until (time after induction) [4]: 9 h |
| Cn1c(=O)c2c(ncn2CCCCCCn2cnc3c2c(=O)n(C)c(=O)n3C)n(C)c1=O [Compound C7-6-C7] |  | 2 | 700000 M⁻¹ | Y | nanopore profile (bumping peak / binding) (alpha-synuclein [1]): predominantly bumping peaks; Ka (alpha-synuclein [2]; ITC in 1.0M KCl): 720000 M⁻¹; # of Binding sites (alpha-synuclein [2]; [6]): 2; growth of 2AS yeast [3, 7]: marginal growth rescue |
| CN1CCC[C@@H]1c1cccnc1 [R-Nicotine, reference compound] |  |  |  |  | # of Binding sites (alpha-synuclein [2]; [6]): 1; Kd (alpha-synuclein [2]; Ka): 0.714 µM |
| Cn1c(=O)c2c(ncn2CCNC2CCc3ccccc32)n(C)c1=O (stereo not shown) [Compound C7-2-I] | significant bumping peaks | 1 | 90000 M⁻¹ | Y |  |
| CN1CCC[C@H]1c1cccnc1 [S-Nicotine, reference compound] |  |  |  |  | Ka (alpha-synuclein [2]; ITC in 1.0M KCl): 400000 M⁻¹; # of Binding sites (alpha-synuclein [2]; [6]): 1 |
| CN(CCCCCCCc1nc2c(c(=O)n(C)c(=O)n2C)n1C)C(=N)NC(=N)N.Cl [Compound C8-7-M] | significant bumping peaks | 2 | 640000 M⁻¹ | Y |  |
| Cn1c(=O)c2c(nc(CCc3nc4c(c(=O)n(C)c(=O)n4C)n3C)n2C)n(C)c1=O [Compound C8-2-C8] | significant bumping peaks | 1 | 900000 M⁻¹ | Y |  |
| Cn1c(=O)c2c(ncn2CCCCCCCCNC2CCc3ccccc32)n(C)c1=O (stereo not shown) [Compound C7-8-I] | bumping peaks, but have a shifted translocation peak visible as well | 0.5 | 2e+07 M⁻¹ | Y |  |
| N[C@H]1CCc2ccccc21 [S-Aminoindan, reference compound] |  | 1 | 3e+06 M⁻¹ | Y | Ka (alpha-synuclein [2]; ITC in 1.0M KCl): 3.1e+06 M⁻¹; # of Binding sites (alpha-synuclein [2]; [6]): 1 |
| Cn1c(=O)c2c(ncn2CCCCNC2CCc3ccccc32)n(C)c1=O (stereo not shown) [Compound C7-4-I] | bumping peaks, but have a shifted translocation peak visible as well | 1 | 5e+06 M⁻¹ | Y |  |
| Cn1c(=O)c2c(nc(CCCCCCCCN3CCCC3c3cccnc3)n2C)n(C)c1=O (racemic) [Compound C8-8-N] |  |  |  |  | binding to alpha-synuclein (alpha-synuclein [1]): bind to alpha-synuclein |
| NC1CCc2c(F)cccc21 (stereo not shown) [4-Fluoro-indan-1-yl-amine, reference compound] |  | 0.5 |  | Y | Kd (alpha-synuclein [2]; Table 2, ITC, read-out: Ka (converted)): 0.333 µM |
| NC1CCc2ccccc21 (racemic) [(R,S)-1-aminoindan, reference compound] |  |  |  |  | growth of 2AS yeast [3, 8]: rate of growth which is similar to that shown by the WT strain; formation of foci delayed until (time after induction) [4]: 9 h; immobility in forced swim test [5]: partially reversed; success in forced swim test ([5]; last three minutes of the test): some improvement; vigor in forced swim test ([5]; last three minutes of the test): some improvement |
| Cn1c(=O)c2c(ncn2CCCCCCNC2CCc3ccccc32)n(C)c1=O (stereo not shown) [Compound C7-6-I] |  | 1 | 2e+06 M⁻¹ | Y | Ka (alpha-synuclein [2]; ITC in 1.0M KCl): 2.6e+06 M⁻¹; # of Binding sites (alpha-synuclein [2]; [6]): 1; growth of 2AS yeast [3, 7]: moderate growth; lag before growth rescue / reaching the growth plateau [3, 7]: about 6 hours; AS-GFP foci / fluorescence pattern [4]: more diffuse area of fluorescence |
| Cn1c(=O)c2c(nc(CCCCCCCCNC3CCc4ccccc43)n2C)n(C)c1=O (racemic) [Compound C8-8-I] |  |  |  |  | binding to alpha-synuclein (alpha-synuclein [1]): bind to alpha-synuclein |
| C[n+]1ccc(-c2cc[n+](C)cc2)cc1 [paraquat, reference compound] |  |  |  |  | effect on growth of WT yeast (WT yeast): no evidence of toxicity; growth of 2AS yeast [3, 8]: significant reduction of growth |
| Cn1c(=O)c2c(nc(CCCCCCc3nc4c(c(=O)n(C)c(=O)n4C)n3C)n2C)n(C)c1=O [Compound C8-6-C8] |  | 0.25 | 2e+08 M⁻¹ | Y | nanopore profile (bumping peak / binding) (alpha-synuclein [1]): predominantly bumping peaks; increase of Ka for a 10-fold decrease in ionic strength (alpha-synuclein [2]; 100 mM KCl versus 1.0M KCl): does not increase; # of Binding sites (alpha-synuclein [2]; ITC in 100 mM KCl): 0.25; Ka (alpha-synuclein [2]; ITC in 100 mM KCl): 1.8e+08 M⁻¹; Ka (alpha-synuclein [2]; ITC in 1.0M KCl): 2e+08 M⁻¹ and 280000 M⁻¹; # of Binding sites (alpha-synuclein [2]; [6]): 0.25; toxicity on WT yeast (WT yeast; 100 micromolar compound): toxic; lag before growth rescue / reaching the growth plateau [3, 7]: about 6 hours |
| Cn1c(=O)c2c(ncn2CCn2cnc3c2c(=O)n(C)c(=O)n3C)n(C)c1=O [Compound C7-2-C7] | significant bumping peaks | 1 | 30000 M⁻¹ | Y |  |
| Cn1c(=O)c2c(ncn2CCCCCCCCn2cnc3c2c(=O)n(C)c(=O)n3C)n(C)c1=O [Compound C7-8-C7] | significant bumping peaks | 0.5 | 400000 M⁻¹ | Y |  |
| Cn1c(=O)c2c(ncn2CCCCn2cnc3c2c(=O)n(C)c(=O)n3C)n(C)c1=O [Compound C7-4-C7] | significant bumping peaks | 0.5 | 1e+07 M⁻¹ | Y |  |
